Results published in patent publication US10933008B1, “Silicon-based cannabidiol derivatives and compositions thereof” (Gelest Technologies, Inc., priority 2015, dated 2021).

Assays:
[1] = Solubility study in common oils, silicones and water; type: physicochemical
Source text: It may be concluded that the CBD isolate was soluble in all oils and insoluble in all silicones and water. The CBD derivatives were insoluble in water and soluble in both oils and silicones (heating was required for the derivative of Example 1). […] Thus, the presence of the silicon-containing groups increased the solubility of CBD in all silicones tested.

[2] = Release of CBD from the infused silicone elastomer on water washes, TLC analysis; type: physicochemical; conditions: hydrolyzed sample and water washes compared to CBD isolate
Procedure: A solution was prepared by adding 5 g of the trisiloxanyl-cannabidiol product (IV) prepared in Example 3 and 5 g of n-propylheptamethyltrisiloxane (commercially available from Gelest) to a 20 ml vial. Sample 1 was prepared by inserting apiece of silicone elastomer (1.5 cm×2.5 cm, 0.35 g, commercially available from Gelest) into a 20 ml vial containing the solution and letting the vial sit with a closed lid for 30 minutes to absorb the solution into the elastomer. Sample 2 (control) was an identical piece of silicone elastomer which was inserted into a 20 ml vial containing hemp seed oil and let sit with a closed lid for 30 minutes to absorb the hemp oil into the elastomer.
Sample 1 was washed in water three consecutive times. For each wash, the sample was placed in a vial containing 10 g of DI water and shaken for 10 seconds. The water from each wash was collected and analyzed for the presence of CBD using a basic thin-layer chromatography (TLC) method using 20% ethyl acetate in hexanes. CBD isolate was compared to a hydrolyzed sample of trisiloxanyl-cannabidiol product (IV) as well as all three washes.

C=C(C)[C@@H]1CCC(C)=C[C@H]1c1c(O)cc(CCCCC)cc1O [CBD, 2-[(1R,6R)-3-methyl-6-(1-methylethenyl)-2-cyclohexen-1-yl]-5-pentyl-1,3-benzenediol, reference compound]
Solubility in oils ([1]; all oils tested): soluble
Solubility in silicones ([1]; all silicones tested): insoluble
Solubility in water ([1]; water): insoluble

CCCCCc1cc(O)c([C@H]2C=C(C)CC[C@H]2C(C)C[Si](C)(C)O[Si](C)(C)O[Si](C)(C)O[Si](C)(C)O[Si](C)(C)CCCC)c(O)c1 (stereo partly drawn) [Example 2, 2-[(1R,6R)-3-Methyl-6-(1-methyl-2-(1-butyl-1,1,3,3,5,5,7,7-octamethyltetrasiloxy-dimethylsilyl)ethyl)-2-cyclohexen-1-yl]-5-pentyl-1,3-benzenediol]
Solubility in castor oil ([1]; castor oil, even with partial heating): only partially soluble

C=C(C)[C@@H]1CCC(C)=C[C@H]1c1c(O)cc(CCCCC)cc1O[Si](C)(O[Si](C)(C)C)O[Si](C)(C)C [Example 3, 2-[(1R,6R)-3-Methyl-6-(1-methylethenyl)-2-cyclohexen-1-yl]-5-pentyl-1-(bis(trimethylsiloxy)methylsiloxy)-3-ol-benzene]
Hydrolysis to release CBD (TLC) [2]: underwent hydrolysis to release CBD
